Test results taken from PMC12216625, “Identification of nanomolar adenosine A2A receptor ligands using reinforcement learning and structure-based drug design” (Nature Communications, 2025).

Assays:
[1] = biological target: T1, A2A receptor (human, wild-type) (Homo sapiens, UniProt P29274); assay: [3H]-ZM241385 radioligand competition, filtration; format: binding; conditions: read-out: A2A / pKi (± SD) (converted)
T1 construct: gene ADORA2A; wild-type human A2A; BacMam-transfected cells (CHO-K1 for the cAMP assay)
Text: [3H]-ZM241385 radioligand competition, filtration on A2A receptor (human, wild-type)

[2] = biological target: T1, A2A receptor (human, wild-type); assay: cAMP accumulation HTRF, agonist mode (compound alone); format: cell-based; conditions: read-out: A2A / pEC50 (± SD) (converted)
Text: cAMP accumulation HTRF, agonist mode (compound alone) on A2A receptor (human, wild-type)

[3] = biological target: T1, A2A receptor (human, wild-type); assay: cAMP accumulation HTRF, antagonist mode; format: cell-based; conditions: read-out: A2A / pIC50 (± SD) (converted)
Text: cAMP accumulation HTRF, antagonist mode on A2A receptor (human, wild-type)

T1 sequence (P29274 whole entry): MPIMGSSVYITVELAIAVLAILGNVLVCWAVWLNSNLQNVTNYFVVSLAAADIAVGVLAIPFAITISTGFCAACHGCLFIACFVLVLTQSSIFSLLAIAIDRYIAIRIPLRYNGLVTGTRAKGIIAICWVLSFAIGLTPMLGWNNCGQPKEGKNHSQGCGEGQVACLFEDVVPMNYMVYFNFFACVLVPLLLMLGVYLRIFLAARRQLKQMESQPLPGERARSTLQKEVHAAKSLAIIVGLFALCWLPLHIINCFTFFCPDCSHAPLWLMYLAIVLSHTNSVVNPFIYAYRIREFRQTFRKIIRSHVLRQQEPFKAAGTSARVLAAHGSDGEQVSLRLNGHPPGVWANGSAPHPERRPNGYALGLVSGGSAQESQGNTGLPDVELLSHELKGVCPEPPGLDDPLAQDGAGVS

SMILES	Ki [1] [nM]	EC50 [2] [nM]	IC50 [3] [nM]
Nc1cc(NCc2ccccc2F)nc(-c2ccccn2)n1 [compound 3, Compound 3]	1260		
Nc1nc(-c2ccc(O)cc2)c2cc(F)ccc2n1 [compound 5, Compound 5]	2000	50.1	
Cc1ccc(-c2nc(N)nn2-c2ccccc2)cc1 [compound 1, Compound 1]	15800		
Nc1nc2cc(-c3ccoc3)cc(-c3ccco3)n2n1 [compound 6, Compound 6]	1260		
Nc1nc(-c2ccco2)nc2c1ccn2-c1ccncc1 [compound 9, Compound 9]	31.6	316	20
Nc1nc(-c2cccc(-n3ccnc3)n2)nc(-c2ccco2)n1 [compound 7, Compound 7]	50.1	20	25.1
